From patent US10227359B2, “Tricyclic heterocycles as bet protein inhibitors” (Incyte Corporation, priority 2014, dated 2019)

Assays:
[1] = test system: KMS.12.BM cell line (human myeloma); experiment: KMS.12.BM Cell Viability Assay; format: cell-based; details: 72 h, KMS.12.BM cells, 3 days, Cell Titer-GLO, read-out: KMS cellular IC50
Experimental: Example B1: KMS.12.BM Cell Viability Assay
KMS.12.BM cell line (human myeloma) was purchased from JCRB (Osaka, Japan) and maintained in RPMI with 10% FBS culture medium. To measure the cytotoxic activity of the compounds through ATP quantitation, the KMS.12.BM cells are plated in the RPMI culture medium at 5000 cells/well/per 100 μL into a 96-well polystyrene clear black tissue culture plate (Greiner-bio-one through VWR, NJ), in the presence or absence of a concentration range of test compounds. After 3 days, […] Cell Titer-GLO Luminescent (Promega, Madison, Wis.) cell culture agent is added to each well for 10 min. at room temperature to stabilize the luminescent signal. This determines the number of viable cells in culture based on quantitation of the ATP present, which signals the presence of metabolically active cells. Luminescence is measured with the Top Count 384 (Packard Bioscience through Perkin Elmer, Boston, Mass.). Compound inhibition is determined relative to cells cultured with no drug and the IC50 reported as the compound concentration required for 50% cell death.

[2] = test system: C-myc in KMS.12.BM cells; experiment: KMS.12.BM C-myc ELISA Assay; format: cell-based; details: Homo sapiens, 2 h
Experimental: KMS.12.BM C-myc ELISA Assay
KMS.12.BM cell line (human myeloma) was purchased from JCRB (Osaka, Japan) and maintained in RPMI with 10% FBS culture medium. To measure the C-myc inhibitory activity of the compounds, the KMS.12.BM cells are plated in the RPMI culture medium at 75000 cells/well/per 200 μL into a 96-well flat bottom polystyrene tissue culture plate (Corning through VWR, NJ), in the presence or absence of a concentration range of test compounds. After 2 h, cells are pelleted and lysed with Cell Extraction Buffer (BioSource, Carlsbad, Calif.) in the presence of protease inhibitors (Life Technologies, Grand Island, N.Y. and Sigma, St Louis, Mo.). Clarified lyses are tested in a C-myc commercial ELISA (Life Technologies, Grand Island, N.Y.). Compound inhibition is determined relative to cells cultured with no drug and the IC50 reported as the compound concentration required for 50% C-myc inhibition.

Cc1noc(C)c1-c1ccc2nc(N3CCC(NC(=O)C(C)(C)C)CC3)n3c2c1OC[C@@H]3c1ccccn1 [Example 11, N-{1-[(4S)-7-(3,5-dimethylisoxazol-4-yl)-4-pyridin-2-yl-4,5-dihydroimidazo[1,5,4-de][1,4]benzoxazin-2-yl]piperidin-4-yl}-2,2-dimethylpropanamide]
IC50 [1]: ≤ 100 nM | IC50 [2]: ≤ 100 nM

Cc1noc(C)c1-c1ccc2nc(N3CCC(N(C)C(=O)C(C)(C)C)CC3)n3c2c1OC[C@@H]3c1ccccn1 [Example 18, N-{1-[(4S)-7-(3,5-dimethylisoxazol-4-yl)-4-pyridin-2-yl-4,5-dihydroimidazo[1,5,4-de][1,4]benzoxazin-2-yl]piperidin-4-yl}-N,2,2-trimethylpropanamide]
IC50 [1]: ≤ 100 nM | IC50 [2]: ≤ 100 nM

Cc1noc(C)c1-c1ccc2nc(N3CCC(N(C)C(=O)C4CC4)CC3)n3c2c1OC[C@@H]3c1ccccn1 [Example 19, N-{1-[(4S)-7-(3,5-dimelhylisoxazol-4-yl)-4-pyridin-2-yl-4,5-dihydroimidazo[1,5,4-de][1,4]benzoxazin-2-yl]piperidin-4-yl}-N-methylcyclopropanecarboxamide]
IC50 [1]: ≤ 100 nM | IC50 [2]: ≤ 100 nM

CC(=O)N1CCN(c2nc3ccc(-c4c(C)noc4C)c4c3n2[C@@H](c2ccccn2)CO4)[C@@H](C)C1 [Example 3, (4S)-2-[(2S)-4-acetyl-2-methylpiperazin-1-yl]-7-(3,5-dimethylisoxazol-4-yl)-4-pyridin-2-yl-4,5-dihydroimidazo[1,5,4-de][1,4]benzoxazine]
IC50 [1]: ≤ 100 nM | IC50 [2]: ≤ 100 nM

CCCC(=O)N(C)C1CCN(c2nc3ccc(-c4c(C)noc4C)c4c3n2[C@@H](c2ccccn2)CO4)CC1 [Example 16, N-{1-[(4S)-7-(3,5-dimethylisoxazol-4-yl)-4-pyridin-2-yl-4,5-dihydroimidazo[1,5,4-de][1,4]benzoxazin-2-yl]piperidin-4-yl}-N-methylbutanamide]
IC50 [1]: ≤ 100 nM | IC50 [2]: ≤ 100 nM

COCC(=O)N1CCN(c2nc3ccc(-c4c(C)noc4C)c4c3n2[C@@H](c2ccccn2)CO4)CC1 [Example 29, (4S)-7-(3,5-dimethylisoxazol-4-yl)-2-[4-(methoxyacetyl)piperazin-1-yl]-4-pyridin-2-yl-4,5-dihydroimidazo[1,5,4-de][1,4]benzoxazine]
IC50 [1]: ≤ 100 nM | IC50 [2]: ≤ 100 nM

Cc1noc(C)c1-c1ccc2nc(N3CCC(N(C)C(=O)N(C)C)CC3)n3c2c1OC[C@@H]3c1ccccn1 [Example 21, N-{1-[(4S)-7-(3,5-dimethylisoxazol-4-yl)-4-pyridin-2-yl-4,5-dihydroimidazo[1,5,4-de][1,4]benzoxazin-2-yl]piperidin-4-yl}-N,N′,N′-trimethylurea]
IC50 [1]: ≤ 100 nM | IC50 [2]: ≤ 100 nM

Cc1noc(C)c1-c1ccc2nc(N3CCN(C(=O)C(C)(C)C)CC3)n3c2c1OC[C@@H]3c1ccccn1 [Example 26, (4S)-7-(3,5-dimethylisoxazol-4-yl)-2-[4-(2,2-dimethylpropanoyl)piperazin-1-yl]-4-pyridin-2-yl-4,5-dihydroimidazo[1,5,4-de][1,4]benzoxazine]
IC50 [1]: ≤ 100 nM | IC50 [2]: ≤ 100 nM

CCCC(=O)NC1CCN(c2nc3ccc(-c4c(C)noc4C)c4c3n2[C@@H](c2ccccn2)CO4)CC1 [Example 10, N-{1-[(4S)-7-(3,5-dimethylisoxazol-4-yl)-4-pyridin-2-yl-4,5-dihydroimidazo[1,5,4-de][1,4]benzoxazin-2-yl]piperidin-4-yl}butanamide]
IC50 [1]: ≤ 100 nM | IC50 [2]: ≤ 100 nM

CC(=O)NC1(C)CCN(c2nc3ccc(-c4c(C)noc4C)c4c3n2[C@@H](c2ccccn2)CO4)CC1 [Example 5, N-{1-[(4S)-7-(3,5-dimethylisoxazol-4-yl)-4-pyridin-2-yl-4,5-dihydroimidazo[1,5,4-de][1,4]benzoxazin-2-yl]-4-methylpiperidin-4-yl}acetamide]
IC50 [1]: ≤ 100 nM | IC50 [2]: ≤ 100 nM

Cc1noc(C)c1-c1ccc2nc(N3CCC(N(C)C(=O)C(C)C)CC3)n3c2c1OC[C@@H]3c1ccccn1 [Example 17, N-{1-[(4S)-7-(3,5-dimethylisoxazol-4-yl)-4-pyridin-2-yl-4,5-dihydroimidazo[1,5,4-de][1,4]benzoxazin-2-yl]piperidin-4-yl}-N,2-dimethylpropanamide]
IC50 [1]: ≤ 100 nM | IC50 [2]: ≤ 100 nM

Cc1noc(C)c1-c1ccc2nc(N3CCN(C(=O)C(C)C)[C@@H](C)C3)n3c2c1OC[C@@H]3c1ccccn1 [Example 9, (4S)-7-(3,5-dimethylisoxazol-4-yl)-2-[(3S)-4-isobutyryl-3-methylpiperazin-1-yl]-4-pyridin-2-yl-4,5-dihydroimidazo[1,5,4-de][1,4]benzoxazine]
IC50 [1]: ≤ 100 nM | IC50 [2]: ≤ 100 nM

Cc1noc(C)c1-c1ccc2nc(N3CCC(N(C)S(=O)(=O)C4CC4)CC3)n3c2c1OC[C@@H]3c1ccccn1 [Example 24, N-{1-[(4S)-7-(3,5-dimethylisoxazol-4-yl)-4-pyridin-2-yl-4,5-dihydroimidazo[1,5,4-de][1,4]benzoxazin-2-yl]piperidin-4-yl}-N-methylcyclopropanesulfonamide]
IC50 [1]: ≤ 100 nM | IC50 [2]: ≤ 100 nM

CCS(=O)(=O)NC1CCN(c2nc3ccc(-c4c(C)noc4C)c4c3n2[C@@H](c2ccccn2)CO4)CC1 [Example 14, N-{1-[(4S)-7-(3,5-dimethylisoxazol-4-yl)-4-pyridin-2-yl-4,5-dihydroimidazo[1,5,4-de][1,4]benzoxazin-2-yl]piperidin-4-yl}ethanesulfonamide]
IC50 [1]: ≤ 100 nM | IC50 [2]: ≤ 100 nM

CC(=O)N1C[C@@H](C)N(c2nc3ccc(-c4c(C)noc4C)c4c3n2[C@@H](c2ccccn2)CO4)[C@@H](C)C1 (atropisomer, axis not shown) [Example 2, (4S)-2-[(2R,6S)-4-Acetyl-2,6-dimethylpiperazin-1-yl]-7-(3,5-dimethylisoxazol-4-yl)-4-pyridin-2-yl-4,5-dihydroimidazo[1,5,4-de][1,4]benzoxazine]
IC50 [1]: ≤ 100 nM | IC50 [2]: ≤ 100 nM

Cc1noc(C)c1-c1ccc2nc(N3CCN(C(=O)C(C)C)CC3)n3c2c1OC[C@@H]3c1ccccn1 [Example 1, (4S)-7-(3,5-Dimethylisoxazol-4-yl)-2-(4-isobutyrylpiperazin-1-yl)-4-pyridin-2-yl-4,5-dihydroimidazo[1,5,4-de][1,4]benzoxazine]
IC50 [1]: ≤ 100 nM | IC50 [2]: ≤ 100 nM

Cc1noc(C)c1-c1ccc2nc(N3CCN(C(=O)C4CC4)CC3)n3c2c1OC[C@@H]3c1ccccn1 [Example 27, (4S)-2-[4-(cyclopropylcarbonyl)piperazin-1-yl]-7-(3,5-dimcthylisoxazol-4-yl)-4-pyridin-2-yl-4,5-dihydroimidazo[1,5,4-de][1,4]benzoxazine]
IC50 [1]: ≤ 100 nM | IC50 [2]: ≤ 100 nM

Cc1noc(C)c1-c1ccc2nc(N3CCC(N(C)C(=O)C4CCC4)CC3)n3c2c1OC[C@@H]3c1ccccn1 [Example 20, N-{1-[(4S)-7-(3,5-dimethylisoxazol-4-yl)-4-pyridin-2-yl-4,5-dihydroimidazo[1,5,4-de][1,4]benzoxazin-2-yl]piperidin-4-yl}-N-methylcyclobutanecarboxamide]
IC50 [1]: ≤ 100 nM | IC50 [2]: 100 to 1000 nM

Cc1noc(C)c1-c1ccc2nc(N3CCC(NC(=O)C4CCC4)CC3)n3c2c1OC[C@@H]3c1ccccn1 [Example 13, N-{1-[(4S)-7-(3,5-dimethylisoxazol-4-yl)-4-pyridin-2-yl-4,5-dihydroimidazo[1,5,4-de][1,4]benzoxazin-2-yl]piperidin-4-yl}cyclobutanecarboxamide]
IC50 [1]: ≤ 100 nM | IC50 [2]: ≤ 100 nM

Cc1noc(C)c1-c1ccc2nc(N3CCC(N(C)S(C)(=O)=O)CC3)n3c2c1OC[C@@H]3c1ccccn1 [Example 22, N-{1-[(4S)-7-(3,5-dimethylisoxazol-4-yl)-4-pyridin-2-yl-4,5-dihydroimidazo[1,5,4-de][1,4]benzoxazin-2-yl]piperidin-4-yl}-N-methylmethanesulfonamide]
IC50 [1]: ≤ 100 nM | IC50 [2]: ≤ 100 nM

CCCC(=O)N1CCN(c2nc3ccc(-c4c(C)noc4C)c4c3n2[C@@H](c2ccccn2)CO4)CC1 [Example 25, (4S)-2-(4-butyrylpiperazin-1-yl)-7-(3,5-dimethylisoxazol-4-yl)-4-pyridin-2-yl-4,5-dihydroimidazo[1,5,4-de][1,4]benzoxazine]
IC50 [1]: ≤ 100 nM | IC50 [2]: ≤ 100 nM

CCC(=O)N(C)C1CCN(c2nc3ccc(-c4c(C)noc4C)c4c3n2[C@@H](c2ccccn2)CO4)CC1 [Example 15, N-{1-[(4S)-7-(3,5-dimethylisoxazol-4-yl)-4-pyridin-2-yl-4,5-dihydroimidazo[1,5,4-de][1,4]benzoxazin-2-yl]piperidin-4-yl}-N-methylpropanamide]
IC50 [1]: ≤ 100 nM | IC50 [2]: ≤ 100 nM
